Where two headings read alike, the source gives them in different places.

The term GI50 denotes the concentration that inhibits growth by half.

In assay [1] the test system is ER-positive, locally advanced breast cancer. The experiment in a line: NEWEST Phase II trial: tumor response by 3D ultrasound after 16 weeks of neoadjuvant fulvestrant. It is filed as in vivo, human. Particulars: for overall response rate (CR+PR): 16 weeks. The protocol: NEWEST (Neoadjuvant Endocrine Therapy for Women with Estrogen-Sensitive Tumors; 9238IL/0065) was a randomized, open-label, multicenter, Phase II study involving postmenopausal women with newly diagnosed, ER-positive, locally advanced breast cancer who had received no prior breast cancer treatment ([…]). Eligible patients were randomized 1:1 to receive either fulvestrant 500 mg or 250 mg for 16 weeks preceding surgery. Fulvestrant 500 mg was given as two 5 ml intramuscular injections on days 0, 14, 28 and every 28 days thereafter for 16 weeks. Fulvestrant 250 mg was given as one 5 ml injection on days 0, 28 and every 28 days thereafter for 16 weeks (Kuter et al., Breast Cancer Res. Treat., 133:237-246, 2012).
A total of 211 patients were enrolled in NEWEST. Of these, 173 completed the study and 121 met all protocol criteria. Fresh frozen pre-treatment samples with sufficient RNA (100 ng) was available from 44 patients. Two samples were discarded due to array quality, leaving 42 patients. Of these 42 patients, 22 were in the 500 mg treatment group and 20 were in the 250 mg treatment group.
During the 16-week treatment phase, patients underwent clinical breast examination every 4 weeks. Tumor volume was measured by 3D ultrasound at baseline, week 4, and after 16 weeks of treatment before definitive surgery. Tumor response was defined as complete response (CR, disappearance of all lesions), partial response (PR, at least 65% reduction in tumor volume by 3D ultrasound), disease progression (PD, at least 73% increase in tumor volume), or stable disease (SD, neither partial response nor disease progression). The reduction for partial response was in relation to baseline but for progressive disease was in relation to the smallest tumor volume at any preceding assessment. Objective responders were those patients with a complete response or partial response.

The test system of a further assay is Ki67. Particulars: after 4 weeks of treatment, patients, cited from earlier work.
Another assay deals with NCI60 cell lines. To be noted: mean over all NCI60 cell lines (FIG. 8); cited from earlier work.
In a further assay the test system is early breast cancer. The experiment in a line: Trial 223: neoadjuvant anastrozole, response according to RECIST. Particulars: patients with outcome information. It is filed as in vivo, human. The protocol:
Trial 223 (Smith et al., J. Clin. Oncol., 25:3816-3822, 2007) was a placebo-controlled trial of neoadjuvant anastrozole alone or with gefitinib in early breast cancer. We used pre-treatment samples from patients from arm B and C: anastrozole 1 mg/d for the duration of the 16 week period plus placebo 1 tablet/d orally for 2 weeks. Patients in arm B were followed by gefitinib 250 mg/d orally for 14 weeks whereas patients in arm C continued with placebo for 14 weeks. We received pre-treatment biopsy material from 21 patients in arms B and C with Ki67 measurements after 2 weeks. We received pre-treatment biopsy material from 16 patients in arm C with outcome information according to guidelines set forth in Response Evaluation Criteria in Solid Tumors (RECIST).
The prediction score of the invention (e.g., prediction score for fulvestrant) was tested for the ability to predict response to aromatase inhibition in a small cohort of 21 patients treated with neoadjuvant anastrozole in a similar protocol to that used to test fulvestrant. […] In addition there was no correlation between prediction score and change in Ki67 produced after 2 weeks of anastrozole treatment (N=21, P=0.9).

Where [2] appears, read: 250 mg fulvestrant, patients with array data.
Where [3] appears, read: 500 mg fulvestrant for 16 weeks, patients with array data.

As to `C[C@]12CC[C@@H]3c4ccc(O)cc4C[C@@H](CCCCCCCCC[S+]([O-])CCCC(F)(F)C(F)(F)F)[C@H]3[C@@H]1CC[C@@H]2O` (stereo partly drawn) [Fulvestrant, fulvestrant], the “overall response rate (CR+PR)” value in assay [1] (250 mg fulvestrant, 19 patients with array data) stood at 26%. In assay [1] (setting [2]), the “number of partial responders” value stood at 5, the “number of patients with stable disease” value was 13 and the “number of progressive disease patients” value was 1. Besides, in assay [1] (setting [3]), the “number of non-responders (SD+PD)” value was determined as 9 and the “number of responders (PR)” value is on record as 11. In addition, the “overall response rate (CR+PR)” value in assay [1] (500 mg fulvestrant) worked out at 50%. Besides, the “average reduction in Ki67” value with Ki67 (250 mg dose) is 47%. Further, the “average reduction in Ki67” value with Ki67 (500 mg dose) is on record as 79%. For the same compound, the GI50 in the assay on NCI60 cell lines was 63 µM.

`CC(C)(C#N)c1cc(Cn2cncn2)cc(C(C)(C)C#N)c1` [anastrozole]: in the assay with early breast cancer, the number of nonresponders result was “Seven” and the number of responders result is on record as “Nine”.

Turning to `O=C(c1ccc(OCCN2CCCCC2)cc1)c1c(-c2ccc(O)cc2)sc2cc(O)ccc12` [raloxifene], the GI50 in the assay on NCI60 cell lines is 8.4 µM.

Take `CC/C(=C(\c1ccccc1)c1ccc(OCCN(C)C)cc1)c1ccccc1` [tamoxifen]: in the assay with NCI60 cell lines, the GI50 is 4.3 µM.

Regarding `CN(C)CCOc1ccc(/C(=C(/CCCl)c2ccccc2)c2ccccc2)cc1` [toremifene], in the assay with NCI60 cell lines, the GI50 was 13 µM.

The record behind these values is patent publication US10392667B2, “Methods and devices for predicting treatment efficacy of fulvestrant in cancer patients” (Medical Prognosis Institute A/S, priority 2013, dated 2019).
